Measured values reported in PMC3499488, “A Potential Peptide Therapeutic Derived from the Juxtamembrane Domain of the Epidermal Growth Factor Receptor” (PLoS ONE, 2012).
Like-named read-outs stand apart in the source and are kept apart here. Where a SMILES comes first, the peptide text is derived from it.

Columns and labels:
[1] = test system: MDA-MB-231 xenograft tumors; assay: MDA-MB-231 xenografts in nude mice; assay type: in vivo
Protocol: NCR-nude female athymic mice were purchased from Taconic Farms, Inc. Mice were injected in the flank region with 1.5×10^6 MDA-MB-231 cells, while anesthetized with ketamine and xylazine. Prior to treatment, tumors were measured in three dimensions using a caliper and tumor volume was calculated by multiplying the three measured dimensions by 0.5 (V = 0.5*l*w*h). Once the tumors reached a minimum size of 100 mm^3, mice were injected intraperitoneally, twice a week, with 200 µL of the TE-64562 peptide (40 mg/kg; 7 µmol/kg), Tat peptide in PBS (20 mg/kg; 7 µmol/kg) or PBS. Endpoints were defined as the tumor size reaching 2000 mm^3 or 20 mm in any dimension, significant weight loss occurring or if the mouse appearing unhealthy according to body conditioning scoring standards. For histological analysis, organs were collected post-sacrifice and fixed in 4% formaldehyde in PBS, followed by paraffin embedding. Sections (6 µm thick) were mounted onto positively charged slides and H&E stained. Images were captured at 20× resolution on a Zeiss Axioplan 2 microscope.

[2] = test system: EGFR dimerization in MDA-MB-231 cells; assay: EGFR dimer detection, BS3 cross-linking and Western blot; assay type: cell-based, human; conditions: 25 µM, 30 minutes; reduction in the loading control (Stat3)
Protocol: Cells were plated in 10-cm dishes, grown to 80% confluence, serum starved overnight, treated and analyzed. For dose response assays, the peptides, EGFR-specific tyrosine kinase inhibitor (TKI) or control was added to each plate and incubated at 37°C for 30 minutes, followed by EGF (10 ng/mL) for an additional 10 minutes at 37°C. For timecourses, TE-64562 and/or EGF were added and the cells were incubated at 37°C for the indicated amounts of time. For EGFR dimer detection, cells were cross-linked after treatment using BS^3 crosslinker (bis[sulfosuccinimidyl] suberate, Thermo scientific, Inc) according to the manufacturer’s instructions. Immediately following treatment, cells were put on ice, washed twice with cold Tris-buffered saline (TBS, pH 7.4) and lysed with radio-immunoprecipitation buffer (50 mM Tris pH 7.5, 100 mM NaCl, 1% NP-40, 0.5% deoxycholate, 0.1% SDS, 1 mM EDTA and protease inhibitor cocktail). After protein concentration determination, cell lysates were analyzed by Western blot analysis with the indicated antibodies following standard procedures and visualized by chemiluminescence. Images were quantified using ImageJ Version 1.43 u.

MDA-MB-231 cells [3] = assay: Cellular entry of FAM-labeled peptides, live-cell fluorescent confocal microscopy; assay type: cell-based, human; conditions: N-terminally FAM-labeled peptide; for fluorescence within the interior of the cell: monitored up to 90 minutes and/or overnight incubation, confocal fluorescence
Protocol: (§1) MDA-MB-231 cells (1×10^5 cells per plate) were plated on 35 mm glass-bottom plates (MatTek Corporation, Ashland, MA), allowed to adhere overnight, then serum starved overnight and analyzed the following day in HBSS (Hank’s balanced salt solution). For real-time uptake of the FAM-labeled peptides, after recording background images, the FAM-labeled peptides were added and cells were imaged every two minutes over approximately 30 minutes. After 30 minutes, images were taken less frequently. Images from representative timepoints are shown. For overnight treatment, the cells were treated in serum-starved media, exchanged into HBSS the following day and imaged.

[4] = test system: HMEC (normal human mammary epithelial cells); conditions: read-out: EC50 value; treated in HMEC media, 24 h; mean ± S.D.
Protocol: (§2) Cells were plated into a 96-well plate (5,000 to 10,000 cells per well) in full growth media. The following day, media is exchanged for serum starved media (0.1% BSA in growth media without FBS) and incubated overnight. Cells were treated for 24 hours with peptides at varying concentrations range (0.78 to 200 µM). The cell viability is read using luminescent cell viability dye (CellTiter-Glo, Promega Corporation, USA) by adding 20 µL of dye to each well containing 100 µL of treated media. The cell viability is calculated by dividing each luminescent reading by the average of the luminescent readings for control, untreated cells. Assays are run in triplicate. Dose-response curves were generated and fitted in Prism 5.0 (GraphPad Software, Inc., USA). The EC50 values were generated using the log inhibitor-normalized response variable slope function (Y = 100/(1+10∧((LogEC50-X)*HillSlope)). EC50 values are shown with standard deviation values (S.D.) from at least three independent experiments. For comparison of MDA-MB-231 with HMEC, the cells were not serum starved and plated and treated in HMEC media.

A-549 cells = conditions: read-out: EC50 value; serum starved overnight, 24 h treatment; mean ± S.D. of two to three independent experiments
Protocol: as §2

[5] = test system: IMR-90 normal lung fibroblasts; conditions: serum starved overnight, 24 h treatment; mean ± S.D.
Protocol: as §2

[6] = test system: NR6 cells (EGFR null clone of NIH/3T3 fibroblasts); conditions: read-out: EC50 value; serum starved overnight, 24 h treatment; mean ± S.D. of two to three independent experiments
Protocol: as §2

MDA-MB-231 cells [7] = assay: Cell viability assay (CellTiter-Glo); assay type: cell-based, human
Source text: Assays are run in triplicate.

SK-N-MC cells = assay: Cellular entry of FAM-labeled peptide, fluorescent confocal microscopy; assay type: cell-based, human; conditions: FAM-labeled peptide 1.5 µM, serum starved cells, confocal fluorescence
Protocol: as §1
(§3) FAM-TE-64562 enters in SK-N-MC cells without any effect of EGF pretreatment. Confocal images of overnight serum starved MDA-MB-231 cells before treatment (0 min) and treated for 90 minutes (A) with 5.0 µM […], (B) with 1.25 µM FAM-Tat or (C) with 2.5 µM FAM-Tat for 60 minutes. (D) SK-N-MC were serum starved overnight and treated with FAM-TE-64562 (1.5 µM) for 16 minutes. (E) NR6 cells MC were serum starved overnight and treated with FAM-TE-64562 (5 µM) for 20 minutes. All scale bars are 20 µm. (TIF) Click here for additional data file.

NR6 cells = assay: as above; assay type: cell-based; conditions: FAM-labeled peptide 5 µM, serum starved cells, confocal fluorescence
Protocol: as §1, §3

CC[C@H](C)[C@H](NC(=O)[C@H](Cc1c[nH]cn1)NC(=O)[C@H](CCCNC(=N)N)NC(=O)[C@H](CCCNC(=N)N)NC(=O)[C@H](CCCNC(=N)N)NC(=O)CNC(=O)[C@H](CCCNC(=N)N)NC(=O)[C@H](CCCNC(=N)N)NC(=O)[C@H](CCCNC(=N)N)NC(=O)[C@H](CCC(N)=O)NC(=O)[C@H](CCCNC(=N)N)NC(=O)[C@H](CCCNC(=N)N)NC(=O)[C@H](CCCCN)NC(=O)[C@H](CCCCN)NC(=O)[C@@H](N)CCCNC(=N)N)C(=O)N[C@H](C(=O)N[C@@H](CCCNC(=N)N)C(=O)N[C@@H](CCCCN)C(=O)N[C@@H](CCCNC(=N)N)C(=O)N[C@H](C(=O)N[C@@H](CC(C)C)C(=O)N[C@@H](CCCNC(=N)N)C(=O)N[C@@H](CCCNC(=N)N)C(=O)N[C@@H](CC(C)C)C(=O)N[C@@H](CC(C)C)C(=O)N[C@@H](CCC(N)=O)C(=O)N[C@@H](CCC(=O)O)C(=O)N[C@@H](CCCNC(=N)N)C(=O)O)[C@@H](C)O)C(C)C [TE-64562] (H-RKKRRQRRRGRRRHIVRKRTLRRLLQER-OH)
toxicity in vivo ([1]; 40 mg/kg intraperitoneally bi-weekly): does not show any significant non-selective toxicity in vivo
body weight over the course of the study ([1]; 40 mg/kg intraperitoneally bi-weekly, versus Tat and saline groups): No significant difference in body weight
histological examination of post-treatment liver, spleen and kidney ([1]; end of 5 weeks of treatment, H&E): No differences between the treatment groups
toxicity to the cells in the dimerization experiment [2]: fairly toxic to the cells
time until peptide entered cells (MDA-MB-231 cells [3]; 2.5 µM, serum starved cells in HBSS, live-cell confocal fluorescence): approximately 10 minutes
EC50 [4]: 38.4 ± 6.1 µM
EC50 (A-549 cells): 6.1 ± 0.9 µM
EC50 [5]: 174 ± 54 µM
EC50 [6]: 104 ± 9 µM
EC50 (MDA-MB-231 cells [7]; cells not serum starved, plated and treated in HMEC media, 24 h, mean ± S.D., read-out: EC50): 7.4 ± 1.9 µM
EC50 (MDA-MB-231 cells [7]; serum starved overnight (0.1% BSA, no FBS), 24 h treatment, CellTiter-Glo, mean ± S.D. of at least three independent experiments, read-out: EC50± S.D.): 12.6 ± 2.3 µM

N=C(N)NCCC[C@H](NC(=O)c1ccc2c(c1)C(=O)OC21c2ccc(O)cc2Oc2cc(O)ccc21)C(=O)N[C@@H](CCCCN)C(=O)N[C@@H](CCCCN)C(=O)N[C@@H](CCCNC(=N)N)C(=O)N[C@@H](CCCNC(=N)N)C(=O)N[C@@H](CCC(N)=O)C(=O)N[C@@H](CCCNC(=N)N)C(=O)N[C@@H](CCCNC(=N)N)C(=O)N[C@@H](CCCNC(=N)N)C(=O)NCC(=O)O [FAM-conjugated Tat, reference compound] (HELM PEPTIDE1{[O=C1OC2(c3ccc(O)cc3Oc3cc(O)ccc32)c2ccc(C(=O)[*:2])cc21].R.K.K.R.R.Q.R.R.R.G}$$$$V2.0)
fluorescence within the interior of the cell (MDA-MB-231 cells [3]): did not display any fluorescence within the interior of the cell

CC[C@H](C)[C@H](NC(=O)[C@H](CCCNC(=N)N)NC(=O)[C@H](CC(C)C)NC(=O)[C@H](CC(C)C)NC(=O)[C@H](C)NC(=O)[C@H](CCC(N)=O)NC(=O)[C@H](CC(N)=O)NC(=O)[C@@H]1CCCN1C(=O)[C@H](C)NC(=O)[C@H](CCC(=O)O)NC(=O)CNC(=O)[C@H](CO)NC(=O)[C@@H]1CCCN1C(=O)[C@@H](NC(=O)[C@H](CC(C)C)NC(=O)[C@@H]1CCCN1C(=O)[C@H](CCC(=O)O)NC(=O)[C@@H](NC(=O)CNC(=O)[C@H](CCCNC(=N)N)NC(=O)[C@H](CCCNC(=N)N)NC(=O)[C@H](CCCNC(=N)N)NC(=O)[C@H](CCC(N)=O)NC(=O)[C@H](CCCNC(=N)N)NC(=O)[C@H](CCCNC(=N)N)NC(=O)[C@H](CCCCN)NC(=O)[C@H](CCCCN)NC(=O)[C@H](CCCNC(=N)N)NC(=O)c1ccc2c(c1)C(=O)OC21c2ccc(O)cc2Oc2cc(O)ccc21)C(C)C)[C@@H](C)O)C(=O)O [FAM-labeled TE-66482] (HELM PEPTIDE1{[O=C1OC2(c3ccc(O)cc3Oc3cc(O)ccc32)c2ccc(C(=O)[*:2])cc21].R.K.K.R.R.Q.R.R.R.G.V.E.P.L.T.P.S.G.E.A.P.N.Q.A.L.L.R.I}$$$$V2.0)
fluorescence within the interior of the cell (MDA-MB-231 cells [3]): did not display any fluorescence within the interior of the cell

CC[C@H](C)[C@H](NC(=O)[C@H](Cc1c[nH]cn1)NC(=O)[C@H](CCCNC(=N)N)NC(=O)[C@H](CCCNC(=N)N)NC(=O)[C@H](CCCNC(=N)N)NC(=O)CNC(=O)[C@H](CCCNC(=N)N)NC(=O)[C@H](CCCNC(=N)N)NC(=O)[C@H](CCCNC(=N)N)NC(=O)[C@H](CCC(N)=O)NC(=O)[C@H](CCCNC(=N)N)NC(=O)[C@H](CCCNC(=N)N)NC(=O)[C@H](CCCCN)NC(=O)[C@H](CCCCN)NC(=O)[C@H](CCCNC(=N)N)NC(=O)c1ccc2c(c1)C(=O)OC21c2ccc(O)cc2Oc2cc(O)ccc21)C(=O)N[C@H](C(=O)N[C@@H](CCCNC(=N)N)C(=O)N[C@@H](CCCCN)C(=O)N[C@@H](CCCNC(=N)N)C(=O)N[C@H](C(=O)N[C@@H](CC(C)C)C(=O)N[C@@H](CCCNC(=N)N)C(=O)N[C@@H](CCCNC(=N)N)C(=O)N[C@@H](CC(C)C)C(=O)N[C@@H](CC(C)C)C(=O)N[C@@H](CCC(N)=O)C(=O)N[C@@H](CCC(=O)O)C(=O)N[C@@H](CCCNC(=N)N)C(=O)O)[C@@H](C)O)C(C)C [FAM-conjugated TE-64562] (HELM PEPTIDE1{[O=C1OC2(c3ccc(O)cc3Oc3cc(O)ccc32)c2ccc(C(=O)[*:2])cc21].R.K.K.R.R.Q.R.R.R.G.R.R.R.H.I.V.R.K.R.T.L.R.R.L.L.Q.E.R}$$$$V2.0)
time until peptide entered cells (SK-N-MC cells): ≤ 15 min
time until peptide entered cells (NR6 cells): ≤ 15 min

CC[C@H](C)[C@H](NC(=O)[C@H](Cc1c[nH]cn1)NC(=O)[C@H](CCCNC(=N)N)NC(=O)[C@H](CCCNC(=N)N)NC(=O)[C@H](CCCNC(=N)N)NC(=O)c1ccc2c(c1)C(=O)OC21c2ccc(O)cc2Oc2cc(O)ccc21)C(=O)N[C@H](C(=O)N[C@@H](CCCNC(=N)N)C(=O)N[C@@H](CCCCN)C(=O)N[C@@H](CCCNC(=N)N)C(=O)N[C@H](C(=O)N[C@@H](CC(C)C)C(=O)N[C@@H](CCCNC(=N)N)C(=O)N[C@@H](CCCNC(=N)N)C(=O)N[C@@H](CC(C)C)C(=O)N[C@@H](CC(C)C)C(=O)N[C@@H](CCC(N)=O)C(=O)N[C@@H](CCC(=O)O)C(=O)N[C@@H](CCCNC(=N)N)C(=O)O)[C@@H](C)O)C(C)C [FAM-conjugated E-64562] (HELM PEPTIDE1{[O=C1OC2(c3ccc(O)cc3Oc3cc(O)ccc32)c2ccc(C(=O)[*:2])cc21].R.R.R.H.I.V.R.K.R.T.L.R.R.L.L.Q.E.R}$$$$V2.0)
fluorescence within the interior of the cell (MDA-MB-231 cells [3]): did not display any fluorescence within the interior of the cell
